# Reference: BindingDB's records for doi:10.7270/Q2TX3CTT (Broad Institute, 2010)
# pEC50: −log10 of the molar value.
# Molecular target: Glycogen synthase kinase-3 beta (Homo sapiens, UniProt P49841)
# Test: GSK3beta kinase inhibitor potency, dose response, biochemical, luminescence, cell-free homogeneous, retest (AID 434954)
# Chain of Glycogen synthase kinase-3 beta (P49841 whole entry): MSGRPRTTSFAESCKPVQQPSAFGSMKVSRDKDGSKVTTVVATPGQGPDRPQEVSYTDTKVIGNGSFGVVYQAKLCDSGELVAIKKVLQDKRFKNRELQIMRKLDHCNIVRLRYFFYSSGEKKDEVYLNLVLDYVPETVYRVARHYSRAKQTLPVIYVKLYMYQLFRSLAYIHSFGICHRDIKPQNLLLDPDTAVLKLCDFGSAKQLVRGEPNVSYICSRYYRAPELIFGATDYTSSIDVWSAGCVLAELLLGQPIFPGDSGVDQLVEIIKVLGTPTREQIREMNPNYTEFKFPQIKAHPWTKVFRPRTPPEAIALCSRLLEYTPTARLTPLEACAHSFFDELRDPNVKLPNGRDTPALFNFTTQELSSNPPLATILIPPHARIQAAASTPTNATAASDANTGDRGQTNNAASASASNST
row,SMILES,pEC50
1,CN(C)c1ccc(/N=N/c2ccc(S(N)(=O)=O)cc2)cc1,< 3.52
2,c1ccc(CNc2nc(-c3cccnc3)nc3ccccc23)cc1,< 3.52
3,CN(C)Cc1ccc(-c2nc3cccc4c3n2CCNC4=O)cc1,4.56
4,Nc1nonc1-n1nnc(C(=O)N/N=C/c2ccncc2)c1CN1CCCCC1,6.74
5,CCN(CC)Cc1c(C(=O)N/N=C/c2ccncc2)nnn1-c1nonc1N,6.75
6,c1ccc(Nc2nc(NCCN3CCOCC3)nc(Nc3ccccc3)n2)cc1,< 3.52
7,COc1ccc(Nc2nc(NCCN3CCOCC3)nc(Nc3ccc(OC)cc3)n2)cc1,< 3.52
8,COC(=O)c1ccc(O)cc1,< 3.52
9,CC(=O)Nc1ccc(S(=O)(=O)c2cc(O)ccc2O)cc1,< 3.52
10,NS(=O)(=O)c1ccc(-c2ccc(/C=C3\NC(=S)NC3=O)o2)cc1,4.33
11,CCn1c(=O)c(C(=O)NNC(=O)c2ccccc2)c(O)c2ccccc21,< 3.52
12,CCCN(CCC)Cc1c(C(=O)NN=Cc2c[nH]c3ccccc23)nnn1-c1nonc1N,< 3.52
13,CC1Cc2cc(S(=O)(=O)N3CCN(c4ccccc4)CC3)ccc2N1C(=O)C1CC1 (stereo unspecified),< 3.52
14,Cc1ccc(C(=O)ON=C(N)c2ccccn2)c(C)c1,4.83
15,N#Cc1c(N)nc(C(C#N)C#N)c(C#N)c1-c1ccccc1,4.72
16,Fc1ccc(CSc2nnc(-c3ccccn3)o2)cc1,< 3.52
17,COc1ccccc1N1CCN(/N=C/c2ccc(Cl)c([N+](=O)[O-])c2)CC1,< 3.52
18,COc1ccc(CCNc2c(C=O)c(=O)[nH]c3ccccc23)cc1OC,< 3.52
19,CN(C)Cc1c(O)ccc2c(=O)c(-c3ccccc3)c(C(F)(F)F)oc12,< 3.52
20,O=C(Nc1ccccn1)Nc1ccccc1Cl,< 3.52
21,CN1CC(=O)Nc2ccc([N+](=O)[O-])cc2C1=O,< 3.52
22,COc1cccc(C(=O)NNC(=O)c2ccccc2)c1,< 3.52
23,O=C(NCCc1ccccc1)c1cccc(Br)c1,< 3.52
24,CCN1CCN(c2c(C=O)c(Cl)nc3ccc(OC)cc23)CC1,5.25

row,SMILES,pEC50
1,CC(=O)Oc1cc(C)cc2oc(=O)cc(-c3ccccc3)c12,< 3.52
2,O=c1cc(-c2ccccc2)c2c(O)cc(O)cc2o1,5.11
3,O=C1C(=O)N(c2ccccn2)C(c2ccc(Br)cc2)C1C(=O)c1ccc(Br)cc1 (stereo unspecified),< 3.52
4,Cc1cccc2cc3c(NC(=O)C(C)(C)C)nn(CC(C)C)c3nc12,< 3.52
5,COc1ccc2nc(C)cc(Nc3ccc(N4CCN(C)CC4)cc3)c2c1,< 3.52
6,COC(=O)c1ccc(CSc2nnc(-c3ccncc3)o2)cc1,< 3.52
7,CC1CCN(c2nc3c(N)ncnc3n2[C@@H]2O[C@H](CO)[C@@H](O)[C@H]2O)CC1,< 3.52
8,CCOc1ccc(-c2csc3[n+]2CC[N-]3)cc1[N+](=O)[O-],< 3.52
9,CCCc1c(C(=O)NN=Cc2ccncc2)nnn1-c1nonc1N,< 3.52
10,CCN(CC)CCNc1nc(SC)nc2sc3c(c12)CCN(C)C3,< 3.52
11,CCC(C)Nc1nc(N)c([N+](=O)[O-])c(NCc2ccccc2)n1 (stereo unspecified),5.02
12,COCCNc1nc(N)c([N+](=O)[O-])c(NC2CCCCC2)n1,5.27
13,COc1ccc(C(=O)c2sc(Nc3ccccc3F)nc2N)cc1,5.83
14,COc1ccc(Nc2nc(N)c([N+](=O)[O-])c(NC3CCCCC3)n2)cc1,< 3.52
15,CC(C)CCNc1nc(N)c([N+](=O)[O-])c(NC2CCCCC2)n1,< 3.52
16,COCCCNc1nc(N)c([N+](=O)[O-])c(NCc2ccccc2)n1,5.23
17,Nc1ncc(-c2ccccc2)c(-c2ccc(O)cc2O)n1,5.11
18,CSc1ncc(C(=O)Nc2ccccc2C)c(C)n1,< 3.52
19,COc1ccc(C(C)(C)C)cc1NS(=O)(=O)c1cccc2cccnc12,< 3.52
20,Cc1cc2nc(-c3cccnc3O)[nH]c2cc1C,5.09
21,COc1cc2ncnc(Nc3ccc4c(c3)OCO4)c2cc1OC,< 3.52
22,c1ccc(CCNCC2COc3ccccc3O2)cc1 (stereo unspecified),< 3.52
23,CC(NCC1COc2ccccc2O1)C1COc2ccccc2O1 (stereo unspecified),< 3.52
24,Cc1ccc([N+](=O)[O-])cc1/N=C1\C(=O)Nc2ccccc21,< 3.52

row,SMILES,pEC50
1,Cc1ccc(-c2nn(-c3ccccc3)cc2CO)cc1,< 3.52
2,COCCNc1nc(N)c([N+](=O)[O-])c(Nc2ccc(F)cc2)n1,< 3.52
3,CCOC(=O)c1c(-c2ccccc2)oc2ccc(OCC(=O)NNC(=O)CCCC(=O)O)cc12,< 3.52
4,COc1ccc(C(=O)c2coc3ccc(OC(C)=O)cc23)cc1,< 3.52
5,Cc1ccc(C)c(Nc2nc(-c3ccncc3)nc3ccccc23)c1,< 3.52
6,O=c1c(-c2ccccc2)c(-c2ccccc2)oc2cc(O)cc(O)c12,4.61
7,CC(=O)c1cccc(S(=O)(=O)NC2CCSc3ccccc32)c1 (stereo unspecified),< 3.52
8,COc1cccc(Nc2nc(-c3ccccc3)nc3ccccc23)c1,< 3.52
9,CC(C)N1CCc2c(sc(NC(=O)Cc3ccccc3)c2C(N)=O)C1,< 3.52
10,CN(c1ncnc(N)c1[N+](=O)[O-])C1CCCCC1,5.59
11,CCC(OCC(O)CN1CCCCC1)c1ccccc1 (stereo unspecified),< 3.52
12,CCC(=O)Nc1sc2c(c1C(N)=O)CCN(Cc1ccccc1)C2,< 3.52
13,Oc1cccc(Nc2nc(-c3ccccc3)nc3ccccc23)c1,< 3.52
14,CCCSCCCNC(=O)Cn1nc(CC)n2c(cc3c(OC)cccc32)c1=O,< 3.52
15,COc1cc(C(=O)OCC(=O)NC(N)=O)cc(CN2C(=O)c3ccccc3C2=O)c1OC,< 3.52
16,CN(C)Cc1c(C(=O)NN=Cc2ccncc2)nnn1-c1nonc1N,5.21
17,c1cncc(-c2nc(NCC3CCCO3)c3ccccc3n2)c1 (stereo unspecified),< 3.52
18,CCCN(CCC)Cc1c(C(=O)NN=Cc2cccs2)nnn1-c1nonc1N,4.22
19,CN(C)Cc1c(C(=O)NN=CCCc2ccccc2)nnn1-c1nonc1N,4.66
20,CCCN(CCC)Cc1c(C(=O)NN=Cc2ccco2)nnn1-c1nonc1N,< 3.52
21,Nc1nonc1-n1nnc(C(=O)NN=Cc2cccc(Cl)c2)c1CN1CCCC1,5.28
22,COCc1c(C(=O)NN=Cc2ccccn2)nnn1-c1nonc1N,< 3.52
23,COc1cccc(/C=C2/Sc3ccc(C(=O)NCCCN4CCCC4)cc3NC2=O)c1,5.55
24,O=C1Nc2cc(C(=O)NCC3CCCO3)ccc2S/C1=C/c1ccccc1F (stereo unspecified),< 3.52

row,SMILES,pEC50
1,COc1cccc2c1cc1c(=O)n(CC(=O)NCCCN3CCN(C)CC3)nc(C)n12,< 3.52
2,Cc1ccc2c(c1)N(C(=O)CCC(=O)NCc1ccccc1)CC(C)O2 (stereo unspecified),< 3.52
3,COC(=O)c1cc(S(=O)(=O)N2CCCC(C)C2)c[nH]1 (stereo unspecified),< 3.52
4,O=[N+]([O-])c1ccccc1S(=O)(=O)Nc1ccc(S(=O)(=O)Nc2nccs2)cc1,< 3.52
5,COc1ccc(CN(CC(=O)NCc2ccccc2)C(=O)CCC(=O)Nc2ccccn2)cc1,< 3.52
6,O=C(CN(Cc1ccccc1)C(=O)CCC(=O)Nc1ccccn1)NCc1ccc(F)cc1,4.23
7,CCCn1c(SCC(=O)Nc2ccccc2OC)nnc1-c1ccco1,< 3.52
8,COc1ccc(CNC(=O)CN(Cc2ccccc2)C(=O)CCC(=O)Nc2ccccn2)cc1,4.62
9,CCN(CC)Cc1c(C(=O)NN=Cc2ccccn2)nnn1-c1nonc1N,5.00
10,Cc1ccc(/C=C2/Sc3ccc(C(=O)NCCN4CCOCC4)cc3NC2=O)cc1,< 3.52
11,Cc1ccc2c(c1)cc1c(=O)n(CC(=O)NCCN3CCCC3)nc(C)n12,< 3.52
12,Cc1ccc2c(c1)COc1c3ccc(C(=O)O)cc3nn1-2,5.06
13,COc1ccc(CN(CC(=O)NCc2ccccc2)C(=O)CCC(=O)Nc2nccs2)cc1,< 3.52
14,CC1CCCCC1NS(=O)(=O)c1ccc2c(c1)CC(=O)N2C (stereo unspecified),< 3.52
15,CCOc1ccccc1C=NNC(=O)c1nnn(-c2nonc2N)c1CN1CCCCCC1,6.98
16,COc1ccc(OC)c(CCNC(=O)c2ccc3c(=O)[nH]c4c(C(=O)NC(C)C)sc(=S)n4c3c2)c1,< 3.52
17,COc1cccc2c1cc1c(=O)n(CC(=O)N3CCC(C)CC3)nc(C)n12,< 3.52
18,Cc1ccc(OCCN(C)C(=O)C2CCC(=O)N(CCCN3CCOCC3)C2)cc1 (stereo unspecified),< 3.52
19,CCn1c(COc2ccccc2)nnc1SCC(=O)NC1CC1,< 3.52
20,COc1cccc2cc(C(=O)OC(C)C(=O)c3ccc(C)cc3)c(=O)oc12 (stereo unspecified),< 3.52
21,CCCn1c(SCC(=O)Nc2ccc(Cl)cn2)nnc1C1CC1,4.62
22,C=CCn1c(SCC(=O)Nc2ccc(Cl)cn2)nnc1C1CC1,4.40
23,CCc1ccc(C=NNC(=O)c2nnn(-c3nonc3N)c2CN2CCOCC2)cc1,< 3.52
24,Nc1nonc1-n1nnc(C(=O)NN=Cc2ccccc2Cl)c1CN1CCOCC1,4.22

row,SMILES,pEC50
1,O=C(c1cccc(-c2ccccc2)c1)N1CC[C@@H](N2CCC(O)CC2)[C@H](O)C1,< 3.52
2,O=C(OCCCOC(=O)c1cc[n+]([O-])cc1)c1cc[n+]([O-])cc1,< 3.52
3,COc1ccc(CCN(C)C(=O)c2ccc(S(=O)(=O)Nc3ccccc3C)cc2)cc1OC,< 3.52
4,O=C(Nc1ccc2c(c1)OCO2)Nc1ccc(F)cc1F,< 3.52
5,Nc1nonc1-n1nnc(C(=O)NN=Cc2ccccc2F)c1-c1cccs1,4.84
6,CCCOc1ccc(-c2c(C(=O)NN=C(C)c3ccco3)nnn2-c2nonc2N)cc1,4.78
7,Cn1c(SCC(=O)NC2CCCCC2)nnc1-c1ccccn1,< 3.52
8,COc1cccc2cc(C(=O)NCc3ccc(C)cc3)c(=N)oc12,< 3.52
9,COc1ccc(C(=O)NC(=S)NC2CCCCC2)cc1,< 3.52
10,CC(=O)c1sc(NC(=O)CCNC(=O)c2ccco2)nc1-c1ccccc1,5.52
11,CC(=O)Nc1ccc(C(=O)OCCCOC(=O)c2ccc(NC(C)=O)cc2)cc1,< 3.52
12,CC(=O)c1ccc(NC(=O)NNS(=O)(=O)c2ccc([N+](=O)[O-])cc2)cc1,< 3.52
13,COc1ccc2c(C)c(CC(=O)N3CCN(C(=O)C4COc5ccccc5O4)CC3)c(=O)oc2c1 (stereo unspecified),< 3.52
14,O=C1CN=C(c2ccccc2)c2c(sc3c2CCCC3)N1,4.56
15,O=C(CSc1nnc(CNC(=O)c2cccc(C(F)(F)F)c2)o1)NC1CCCCC1,< 3.52
16,CC(=O)N1CCc2c(sc(NC(=O)CCS(=O)(=O)c3ccccc3)c2C(N)=O)C1,3.91
17,CS(=O)(=O)c1ccccc1-c1nnc(NC(=O)c2ccc3ncsc3c2)o1,< 3.52
18,Cn1cc(S(=O)(=O)NCc2ccc(F)cc2)c(=O)n(C)c1=O,< 3.52
19,Cc1cccn2c(=O)nc(SCC(=O)NC3CCCCC3)nc12,< 3.52
20,O=C(Nc1nnc(-c2cc(Cl)ccc2Cl)o1)c1ccco1,< 3.52
